Reference: patent publication US9284333B2, “Fused pyrroledicarboxamides and their use as pharmaceuticals” (SANOFI, priority 2012, dated 2016)

The molecules below were run against Human TASK-1 channels (Homo sapiens (Human), UniProt O14649) (assay: Determination of the activity on the TASK-1 channel in Xenopus oocytes (two-microelectrode voltage clamp)). Details: human TASK-1 expressed in Xenopus oocytes, room temperature; read-out: IC50 value for TASK-1 inhibition.
Type: cell-based
How it was run: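 Xenopus oocytes were injected with human TASK-1 cRNA and recorded two days later by two-microelectrode voltage clamp, holding at −90 mV with 500 ms steps to 40 mV. Superfusion used ND96, pH 7.4, at room temperature, with rising compound concentrations; percentage inhibition of control current was fitted to a dose-response curve for IC50.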

Chain of Human TASK-1 channels (O14649 whole entry): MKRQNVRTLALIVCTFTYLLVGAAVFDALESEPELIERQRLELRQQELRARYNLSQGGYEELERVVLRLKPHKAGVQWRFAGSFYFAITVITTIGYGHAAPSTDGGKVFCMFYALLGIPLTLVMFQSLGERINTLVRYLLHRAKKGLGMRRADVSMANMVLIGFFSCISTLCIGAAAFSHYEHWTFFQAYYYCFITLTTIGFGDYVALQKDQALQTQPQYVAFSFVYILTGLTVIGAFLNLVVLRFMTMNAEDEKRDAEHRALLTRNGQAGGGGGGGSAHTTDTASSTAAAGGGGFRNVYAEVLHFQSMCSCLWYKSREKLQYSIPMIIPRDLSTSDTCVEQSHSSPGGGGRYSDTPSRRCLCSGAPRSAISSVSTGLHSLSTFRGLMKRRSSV

IC50	Compound
73 nM	CC[C@@H](NC(=O)c1cc(C(=O)N2CCC[C@@H]2C)n2c1COCC2)c1ccc(OC)c(Cl)c1 [16ch, 6-((S)-2-Methyl-pyrrolidine-1-carbonyl)-3,4-dihydro-1H-pyrrolo[2,1-c][1,4]oxazine-8-carboxylic acid [(R)-1-(3-chloro-4-methoxy-phenyl)-propyl]-amide]
250 nM	CC[C@@H](NC(=O)c1cc(C(=O)N2CCC[C@@H]2C)n2c1COCC2)c1ccccc1C(F)(F)F [16s, 6-((S)-2-Methyl-pyrrolidine-1-carbonyl)-3,4-dihydro-1H-pyrrolo[2,1-c][1,4]oxazine-8-carboxylic acid [(R)-1-(2-trifluoromethyl-phenyl)-propyl]-amide]
560 nM	CC[C@@H](NC(=O)c1cc(C(=O)NC(C)c2ncccn2)n2c1COCC2)c1ccccc1 (stereo partly drawn) [16hd, 3,4-Dihydro-1H-pyrrolo[2,1-c][1,4]oxazine-6,8-dicarboxyli cacid 8-[((R)-1-phenyl-propyl)-amide] 6-[(1-pyrimidin-2-yl-ethyl)-amide]]
920 nM	CC[C@@H](NC(=O)c1cc(C(=O)N2CCC[C@@H]2C)n2c1COCC2)c1ncc(C(F)(F)F)cn1 [16bh, 6-((S)-2-Methyl-pyrrolidine-1-carbonyl)-3,4-dihydro-1H-pyrrolo[2,1-c][1,4]oxazine-8-carboxylic acid [(R)-1-(5-trifluoromethyl-pyrimidin-2-yl)-propyl]-amide]
310 nM	CC(NC(=O)c1cc(C(=O)N[C@@H](c2ccc(F)cc2)C(C)C)n2c1COCC2)c1ccno1 (stereo partly drawn) [16lk, 3,4-Dihydro-1H-pyrrolo[2,1-c][1,4]oxazine-6,8-dicarboxylic acid 6-{[(R)-1-(4-fluoro-phenyl)-2-methyl-propyl]-amide} 8-[(1-isoxazol-5-yl-ethyl)-amide]]
220 nM	C[C@@H](NC(=O)c1cc(C(=O)N[C@H](C)c2ccccc2F)c2n1CCOC2)c1ccc(F)cc1 [16dq, 3,4-Dihydro-1H-pyrrolo[2,1-c][1,4]oxazine-6,8-dicarboxylic acid 6-{[(R)-1-(4-fluoro-phenyl)-ethyl]-amide} 8-{[(R)-1-(2-fluoro-phenyl)-ethyl]-amide}]
2500 nM	CC[C@@H](NC(=O)c1cc(C(=O)NCC(C)(C)O)n2c1COCC2)c1ccccc1 [16jd, 3,4-Dihydro-1H-pyrrolo[2,1-c][1,4]oxazine-6,8-dicarboxylic acid 6-[(2-hydroxy-2-methyl-propyl)-amide] 8-[((R)-1-phenyl-propyl)-amide]]
150 nM	CC[C@@H](NC(=O)c1cc(C(=O)NCc2nccs2)c2n1CCOC2)c1ccccc1 [16jt, 3,4-Dihydro-1H-pyrrolo[2,1-c][1,4]oxazine-6,8-dicarboxylic acid 6-[((R)-1-phenyl-propyl)-amide] 8-[(thiazol-2-ylmethyl)-amide]]
380 nM	CC[C@@H](NC(=O)c1cc(C(=O)N2CCC[C@@H]2COC)n2c1COCC2)c1ccccc1 [16eo, 6-((R)-2-Methoxymethyl-pyrrolidine-1-carbonyl)-3,4-dihydro-1H-pyrrolo[2,1-c][1,4]oxazine-8-carboxylic acid ((R)-1-phenyl-propyl)-amide]
250 nM	CC[C@@H](NC(=O)c1cc(C(=O)N[C@H](C)c2ccc(F)cc2)n2c1COCC2)c1ccc(C(F)(F)F)cc1 [16eb, 3,4-Dihydro-1H-pyrrolo[2,1-c][1,4]oxazine-6,8-dicarboxylic acid 6-{[(R)-1-(4-fluoro-phenyl)-ethyl]-amide} 8-{[(R)-1-(4-trifluoromethyl-phenyl)-propyl]-amide}]
130 nM	CC[C@@H](NC(=O)c1cc(C(=O)N[C@H](C)c2cnccn2)c2n1CCOC2)c1ccc(F)cc1Cl [16kn, 3,4-Dihydro-1H-pyrrolo[2,1-c][1,4]oxazine-6,8-dicarboxylic acid 6-{[(R)-1-(2-chloro-4-fluoro-phenyl)-propyl]-amide} 8-[((R)-1-pyrazin-2-yl-ethyl)-amide]]
710 nM	CC[C@@H](NC(=O)c1cc(C(=O)N[C@H](c2ccc(F)cc2)C2CC2)n2c1COCC2)c1ccccc1 [16ik, 3,4-Dihydro-1H-pyrrolo[2,1-c][1,4]oxazine-6,8-dicarboxylic acid 6-{[(S)-cyclopropyl-(4-fluoro-phenyl)-methyl]-amide} 8-[((R)-1-phenyl-propyl)-amide]]
1800 nM	CC[C@H](NC(=O)c1cc(C(=O)N[C@@H](CC)c2ncccn2)c2n1CCOC2)c1ccccc1 [16kc]
2400 nM	CC[C@@H](NC(=O)c1cc(C(=O)N2CCC[C@@H]2C)n2c1COCC2)c1cnc(C(F)(F)F)c(OC)c1 [16cw, 6-((S)-2-Methyl-pyrrolidine-1-carbonyl)-3,4-dihydro-1H-pyrrolo[2,1-c][1,4]oxazine-8-carboxylic acid [(R)-1-(5-methoxy-6-trifluoromethyl-pyridin-3-yl)-propyl]-amide]
180 nM	CC[C@@H](NC(=O)c1cc(C(=O)N2CCCC2C(C)(C)C)n2c1COCC2)c1ccccc1 (stereo partly drawn) [16ex, 6-(2-tert-Butyl-pyrrolidine-1-carbonyl)-3,4-dihydro-1H-pyrrolo[2,1-c][1,4]oxazine-8-carboxylic acid ((R)-1-phenyl-propyl)-amide]
5400 nM	CC[C@@H](NC(=O)c1cc(C(=O)N(C)CC2CCOCC2)n2c1COCC2)c1ccccc1 [16gd, 3,4-Dihydro-1H-pyrrolo[2,1-c][1,4]oxazine-6,8-dicarboxylic acid 6-[methyl-(tetrahydro-pyran-4-ylmethyl)-amide] 8-[((R)-1-phenyl-propyl)-amide]]
350 nM	CC[C@H](NC(=O)c1cc(C(=O)N[C@H](C)c2ccc(F)cc2)n2c1COCC2)c1ncc(C(F)(F)F)cn1 [16ee, 3,4-Dihydro-1H-pyrrolo[2,1-c][1,4]oxazine-6,8-dicarboxylic acid 6-{[(R)-1-(4-fluoro-phenyl)-ethyl]-amide} 8-{[(S)-1-(5-trifluoromethyl-pyrimidin-2-yl)-propyl]-amide}]
480 nM	CC[C@H](NC(=O)c1cc(C(=O)N2CCC[C@@H]2C)n2c1COCC2)c1cnc(C(F)(F)F)cc1C(F)(F)F [16bx, 6-((S)-2-Methyl-pyrrolidine-1-carbonyl)-3,4-dihydro-1H-pyrrolo[2,1-c][1,4]oxazine-8-carboxylic acid [(S)-1-(4,6-bis-trifluoromethyl-pyridin-3-yl)-propyl]-amide]
95 nM	CC[C@@H](NC(=O)c1cc(C(=O)N[C@H](C)c2ccc(F)cc2)c2n1CSC2)c1ccccc1 [16kw, 1H-Pyrrolo[1,2-c]thiazole-5,7-dicarboxylic acid 7-{[(R)-1-(4-fluoro-phenyl)-ethyl]-amide} 5-[((R)-1-phenyl-propyl)-amide]]
240 nM	CC[C@@H](NC(=O)c1cc(C(=O)N[C@H](CC)c2cccnc2OC)n2c1COCC2)c1ccccc1 [16ig, 3,4-Dihydro-1H-pyrrolo[2,1-c][1,4]oxazine-6,8-dicarboxylic acid 6-{[(R)-1-(2-methoxy-pyridin-3-yl)-propyl]-amide} 8-[((R)-1-phenyl-propyl)-amide]]
1100 nM	CC[C@@H](NC(=O)c1cc(C(=O)NC(C)c2cccc(S(=O)(=O)N(C)C)c2)n2c1COCC2)c1ccccc1 (stereo partly drawn) [16rj, 3,4-Dihydro-1H-pyrrolo[2,1-c][1,4]oxazine-6,8-dicarboxylic acid 6-{[1-(3-dimethylsulfamoyl-phenyl)-ethyl]-amide} 8-[((R)-1-phenyl-propyl)-amide]]
290 nM	O=C(N[C@H](c1ccc(F)cc1)C1CC1)c1cc(C(=O)N2CCCC2)n2c1COCC2 [16dh, 6-(Pyrrolidine-1-carbonyl)-3,4-dihydro-1H-pyrrolo[2,1-c][1,4]oxazine-8-carboxylic acid [(S)-cyclopropyl-(4-fluoro-phenyl)-methyl]-amide]
74 nM	CC[C@@H](NC(=O)c1cc(C(=O)N2CCCC2)n2c1COCC2)c1ccccc1 [16cx, 6-(Pyrrolidine-1-carbonyl)-3,4-dihydro-1H-pyrrolo[2,1-c][1,4]oxazine-8-carboxylic acid ((R)-1-phenyl-propyl)-amide]
240 nM	CC[C@@H](NC(=O)c1cc(C(=O)N2CC[C@H](Oc3ccc(F)cc3)C2)n2c1COCC2)c1ccccc1 [16fu, 6-[(S)-3-(4-Fluoro-phenoxy)-pyrrolidine-1-carbonyl]-3,4-dihydro-1H-pyrrolo[2,1-c][1,4]oxazine-8-carboxylic acid ((R)-1-phenyl-propyl)-amid]
830 nM	CC[C@@H](NC(=O)c1cc(C(=O)N2CCC[C@@H]2C)n2c1COCC2)c1cnc(C(F)(F)F)c(F)c1 [16ck, 6-((S)-2-Methyl-pyrrolidine-1-carbonyl)-3,4-dihydro-1H-pyrrolo[2,1-c][1,4]oxazine-8-carboxylic acid [(R)-1-(5-fluoro-6-trifluoromethyl-pyridin-3-yl)-propyl]-amide]
220 nM	CC[C@@H](NC(=O)c1cc(C(=O)N[C@H](C)c2ccc(F)cc2)n2c1COCC2)c1ccc(OC)nc1 [16du]
93 nM	CC[C@@H](NC(=O)c1cc(C(=O)N2CCC[C@@H]2C)n2c1COCC2)c1ccc(C(F)(F)F)c(F)c1 [16bm, 6-((S)-2-Methyl-pyrrolidine-1-carbonyl)-3,4-dihydro-1H-pyrrolo[2,1-c][1,4]oxazine-8-carboxylic acid [(R)-1-(3-fluoro-4-trifluoromethyl-phenyl)-propyl]-amide]
13 nM	CC[C@@H](NC(=O)c1cc(C(=O)N2CCC[C@@H]2C)n2c1COCC2)c1ccc(C(F)(F)F)c(Cl)c1 [16c, 6-((S)-2-Methyl-pyrrolidine-1-carbonyl)-3,4-dihydro-1H-pyrrolo[2,1-c][1,4]oxazine-8-carboxylic acid [(R)-1-(3-chloro-4-trifluoromethyl-phenyl)-propyl]-amide]
210 nM	CC[C@@H](NC(=O)c1cc(C(=O)N2CCC[C@@H]2C)n2c1COCC2)c1ccnc(C(F)(F)F)c1F [16bu, 6-((S)-2-Methyl-pyrrolidine-1-carbonyl)-3,4-dihydro-1H-pyrrolo[2,1-c][1,4]oxazine-8-carboxylic acid [(R)-1-(3-fluoro-2-trifluoromethyl-pyridin-4-yl)-propyl]-amide]
